Structures are written as SMILES.

IC50 data for 28 molecules are collected here from BindingDB's records for doi:10.1016/j.bmcl.2020.127533 (Glaxosmithkline, 2020).

The target in the assay is Methionine aminopeptidase 2 (Homo sapiens) (UniProt P50579). Briefly: Inhibition of MetAP2 (unknown origin).
Sequence of Methionine aminopeptidase 2 (Homo sapiens) (P50579 whole entry, looked up): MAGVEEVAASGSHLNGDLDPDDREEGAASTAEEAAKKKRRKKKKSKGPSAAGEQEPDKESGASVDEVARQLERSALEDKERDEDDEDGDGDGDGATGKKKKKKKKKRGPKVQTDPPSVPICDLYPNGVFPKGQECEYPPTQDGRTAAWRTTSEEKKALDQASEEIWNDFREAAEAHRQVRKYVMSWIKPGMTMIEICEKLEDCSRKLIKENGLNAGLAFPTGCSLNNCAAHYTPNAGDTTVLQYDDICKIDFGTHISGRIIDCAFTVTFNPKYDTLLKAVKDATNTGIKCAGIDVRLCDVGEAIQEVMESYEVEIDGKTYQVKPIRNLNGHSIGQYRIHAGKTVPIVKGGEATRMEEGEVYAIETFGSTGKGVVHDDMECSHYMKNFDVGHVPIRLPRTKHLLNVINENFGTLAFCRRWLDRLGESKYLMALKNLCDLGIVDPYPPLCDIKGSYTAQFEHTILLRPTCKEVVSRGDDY
As to `CC(C)Oc1cc(N2CCNCC2)ccc1-c1c(C(N)=O)[nH]c2cc(F)c(Cl)cc12`, half-maximal inhibition (IC50) was put at 3.2 nM. Take `NC(=O)c1[nH]c2ccc(Cl)cc2c1-c1ccc(Cl)cc1`: the concentration for half-maximal inhibition (IC50) amounted to 398 nM. Against the preceding molecule, the IC50 is about 120-fold higher. In the case of `NC(=O)c1[nH]c2ccc(Cl)cc2c1-c1ccc(C(=O)N2CCCC2)cc1` it was 251 nM; in that of `NC(=O)c1[nH]c2c(Cl)cccc2c1-c1ccccc1`, 7940 nM. In the case of `NC(=O)c1[nH]c2ccc(Cl)cc2c1-c1ccc(N2CCOCC2)cc1` it was 50 nM; in that of `NC(=O)c1[nH]c2cnccc2c1-c1ccccc1`, 6310 nM. Turning to `CN(C)Cc1ccc(-c2c(C(N)=O)[nH]c3ccc(Cl)cc23)cc1`, half-maximal inhibition (IC50) required 1000 nM. Molecule `NC(=O)c1[nH]c2ccc(Cl)cc2c1-c1ccccc1` displayed a concentration for half-maximal inhibition (IC50) of 316 nM. This IC50 lies about 3.2-fold lower than the previous one.

On to `NC(=O)c1[nH]c2ccccc2c1-c1ccccc1`, for which the IC50 was 2510 nM. On to `CN1CCN(c2ccc(-c3c(C(N)=O)[nH]c4ccc(Cl)cc34)cc2)CC1`, for which the concentration for half-maximal inhibition (IC50) turned out to be 25 nM.

In the case of `NC(=O)c1[nH]c2cc(F)c(Cl)cc2c1-c1ccccc1`, the IC50 was determined as 63 nM. In the case of `CN(C)c1ccc(-c2c(C(N)=O)[nH]c3ccc(Cl)cc23)cc1`, the midpoint of inhibition, the IC50, lay at 100 nM. This IC50 is about 1.6-fold higher than that of the molecule before.

Take `NC(=O)c1[nH]c2ccc(Cl)c(F)c2c1-c1ccccc1`: inhibition was half-maximal at 3980 nM (IC50). In the case of `NC(=O)c1[nH]c2ccc(Cl)cc2c1-c1ccccc1OC(F)(F)F`, half-maximal inhibition (IC50) was put at 398 nM. As for `N#Cc1ccc(-c2c(C(N)=O)[nH]c3ccc(Cl)cc23)cc1`, the figure is 501 nM; as for `CC(=O)c1[nH]c2ccc(Cl)cc2c1-c1ccccc1`, 1580 nM; as for `NC(=O)c1[nH]c2ncc(Cl)cc2c1-c1ccccc1`, 1260 nM. As for `COc1ccc(-c2c(C(N)=O)[nH]c3ccc(Cl)cc23)cc1`, the figure is 126 nM; as for `NC(=O)c1[nH]c2ccc(Cl)cc2c1-c1ccc(-c2ccn[nH]2)cc1`, 251 nM; as for `CC(C)Oc1cc(N2CCNCC2)ccc1-c1c(C(N)=O)[nH]c2cc(F)c(F)cc12`, 2 nM.

For `Cc1ccccc1-c1c(C(N)=O)[nH]c2ccc(Cl)cc12`, the concentration for half-maximal inhibition (IC50) worked out at 316 nM. Compared with the last molecule, the IC50 is about 160-fold higher.

On to `COc1ccccc1-c1c(C(N)=O)[nH]c2ccc(Cl)cc12`, for which inhibition was half-maximal at 100 nM (IC50). `NC(=O)c1[nH]c2ccc(F)cc2c1-c1ccccc1`: it took 631 nM to reach half-maximal inhibition (IC50). As for `O=C(O)c1[nH]c2ccc(Cl)cc2c1-c1ccccc1`, the figure is 20000 nM; as for `CC(C)Oc1ccccc1-c1c(C(N)=O)[nH]c2ccc(Cl)cc12`, 25 nM; as for `CC(C)Oc1ccccc1-c1c(C(N)=O)[nH]c2cc(F)c(Cl)cc12`, 5 nM. As for `COc1ccccc1-c1c(C(N)=O)[nH]c2cc(F)c(Cl)cc12`, the figure is 6.3 nM. Regarding `NC(=O)c1[nH]c2c(F)cc(Cl)cc2c1-c1ccccc1`, half-maximal inhibition (IC50) required 631 nM.
